Assay results from the supplement of paper PMC10307832.

How the values were obtained:
Experiment in all cases: relative viability (nuclei count vs DMSO), 5 days (fraction); higher = more cells survive
Doxorubicin + Vorinostat = compound: COc1cccc2c1C(=O)c1c(O)c3c(c(O)c1C2=O)C[C@@](O)(C(=O)CO)C[C@@H]3O[C@H]1C[C@H](N)[C@H](O)[C@H](C)O1 [Doxorubicin] + O=C(CCCCCCC(=O)Nc1ccccc1)NO [Vorinostat] (partner 1 µM)
Method in brief: (§1)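 Relative viability equals treated-well nuclei counts divided by vehicle-well nuclei counts. Counts came from 4× images of lung cancer cell lines grown in 1536-well plates for 5 days after pin-tool dosing on the day after seeding. Dosing used one drug alone or a fixed anchor-drug dose plus five library-drug doses (not always all listed) in √10 steps, and values are medians of duplicate plates.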

Doxorubicin + Dasatinib = compound: COc1cccc2c1C(=O)c1c(O)c3c(c(O)c1C2=O)C[C@@](O)(C(=O)CO)C[C@@H]3O[C@H]1C[C@H](N)[C@H](O)[C@H](C)O1 [Doxorubicin] + Cc1nc(Nc2ncc(C(=O)Nc3c(C)cccc3Cl)s2)cc(N2CCN(CCO)CC2)n1 [Dasatinib] (partner 0.075 µM)
Method in brief: as §1

Doxorubicin + Decitabine = compound: COc1cccc2c1C(=O)c1c(O)c3c(c(O)c1C2=O)C[C@@](O)(C(=O)CO)C[C@@H]3O[C@H]1C[C@H](N)[C@H](O)[C@H](C)O1 [Doxorubicin] + Nc1ncn([C@H]2C[C@H](O)[C@@H](CO)O2)c(=O)n1 [Decitabine] (partner 2 µM)
Method in brief: as §1

BAY61-3606 + Vorinostat = compound: COC1=C(C=C(C=C1)C2=CC3=NC=CN3C(=N2)NC4=C(C=CC=N4)C(=O)N)OC [BAY61-3606] + O=C(CCCCCCC(=O)Nc1ccccc1)NO [Vorinostat] (partner 1 µM)
Method in brief: as §1

| Cell Line | relative viability (Doxorubicin + Vorinostat; first compound 0.001 µM) | relative viability (Doxorubicin + Vorinostat; first compound 0.003162 µM) | relative viability (Doxorubicin + Vorinostat; first compound 0.01 µM) | relative viability (Doxorubicin + Vorinostat; first compound 0.03162 µM) | relative viability (Doxorubicin + Vorinostat; first compound 0.1 µM) | relative viability (Doxorubicin + Dasatinib; first compound 0.001 µM) | relative viability (Doxorubicin + Dasatinib; first compound 0.003162 µM) | relative viability (Doxorubicin + Dasatinib; first compound 0.01 µM) | relative viability (Doxorubicin + Dasatinib; first compound 0.03162 µM) | relative viability (Doxorubicin + Dasatinib; first compound 0.1 µM) | relative viability (Doxorubicin + Decitabine; first compound 0.001 µM) | relative viability (Doxorubicin + Decitabine; first compound 0.003162 µM) | relative viability (Doxorubicin + Decitabine; first compound 0.01 µM) | relative viability (Doxorubicin + Decitabine; first compound 0.03162 µM) | relative viability (Doxorubicin + Decitabine; first compound 0.1 µM) | relative viability (BAY61-3606 + Vorinostat; first compound 0.02 µM) | relative viability (BAY61-3606 + Vorinostat; first compound 0.06325 µM) | relative viability (BAY61-3606 + Vorinostat; first compound 0.2 µM) | relative viability (BAY61-3606 + Vorinostat; first compound 0.6325 µM) | relative viability (BAY61-3606 + Vorinostat; first compound 2 µM) |
| --- | --- | --- | --- | --- | --- | --- | --- | --- | --- | --- | --- | --- | --- | --- | --- | --- | --- | --- | --- | --- |
| NCI-H1355 | 0.604 | 0.602 | 0.631 | 0.599 | 0.625 | 0.723 | 0.789 | 0.722 | 0.706 | 0.764 | 0.379 | 0.424 | 0.383 | 0.382 | 0.349 | 0.722 | 0.617 | 0.574 | 0.645 | 0.604 |
| RERF-LC-KJ | 0.672 | 0.721 | 0.632 | 0.469 | 0.487 | 0.85 | 0.83 | 0.706 | 0.318 | 0.278 | 0.78 | 0.671 | 0.598 | 0.334 | 0.282 | 0.701 | 0.684 | 0.704 | 0.881 | 0.614 |
| NCI-H2126 | 0.725 | 0.839 | 0.8 | 0.751 | 0.799 | 0.619 | 0.556 | 0.55 | 0.232 | 0.224 | 0.531 | 0.608 | 0.562 | 0.57 | 0.587 | 0.799 | 0.761 | 0.733 | 0.747 | 0.619 |
| BEN | 0.617 | 0.612 | 0.467 | 0.58 | 0.502 | 0.366 | 0.296 | 0.329 | 0.294 | 0.418 | 0.757 | 0.714 | 0.712 | 0.62 | 0.607 | 0.545 | 0.577 | 0.573 | 0.546 | 0.588 |
| LCLC-97TM1 | 0.785 | 0.909 | 0.73 | 0.707 | 0.703 | 0.836 | 0.776 | 0.831 | 0.734 | 0.884 | 0.229 | 0.233 | 0.178 | 0.176 | 0.242 | 0.893 | 0.818 | 0.534 | 0.778 | 0.589 |
| EKVX | 0.764 | 0.889 | 0.762 | 0.724 | 0.794 | 0.581 | 0.504 | 0.601 | 0.539 | 0.501 | 0.389 | 0.34 | 0.307 | 0.296 | 0.375 | 0.84 | 0.685 | 0.658 | 0.783 | 0.775 |
| ABC-1 | 1.25 | 0.999 | 0.908 | 0.509 | 0.309 | 0.612 | 0.56 | 0.511 | 0.33 | 0.224 | 0.993 | 1.18 | 0.955 | 0.708 | 0.726 | 1.41 | 1.08 | 1.3 | 1.3 | 1.28 |
| PC-14 | 0.655 | 0.781 | 0.709 | 0.182 | 0.0946 | 0.28 | 0.184 | 0.22 | 0.0983 | 0.0282 | 0.246 | 0.228 | 0.238 | 0.0977 | 0.0677 | 0.808 | 0.799 | 0.845 | 0.87 | 0.667 |
| NCI-H1651 | 0.572 | 0.591 | 0.569 | 0.533 | 0.495 | 0.334 | 0.39 | 0.246 | 0.154 | 0.102 | 0.534 | 0.63 | 0.638 | 0.506 | 0.571 | 0.62 | 0.509 | 0.523 | 0.539 | 0.542 |
| NCI-H2087 | 0.327 | 1.08 | 0.746 | 0.75 | 0.677 |  | 0.844 | 0.769 | 0.475 | 0.222 | 0.291 | 0.264 | 0.239 | 0.242 | 0.173 | 0.673 | 1.03 | 0.727 | 0.359 | 0.647 |
| NCI-H1944 | 0.554 | 0.632 | 0.541 | 0.416 | 0.497 | 0.18 | 0.206 | 0.216 | 0.165 | 0.174 | 0.441 | 0.506 | 0.403 | 0.372 | 0.439 | 0.65 | 0.538 | 0.515 | 0.559 | 0.487 |
| LCLC-103H | 0.775 | 0.823 | 0.779 | 0.811 | 0.902 | 0.507 | 0.6 | 0.446 | 0.381 | 0.552 | 0.751 | 0.747 | 0.75 | 0.789 | 0.73 | 0.782 | 0.716 | 0.724 | 0.791 | 0.789 |
| COR-L 105 | 0.707 | 0.788 | 0.773 | 0.559 | 0.434 | 0.431 | 0.355 | 0.323 | 0.257 | 0.261 | 0.626 | 0.734 | 0.506 | 0.53 | 0.384 | 0.938 | 0.947 | 0.734 | 0.791 | 0.746 |
| NCI-H1437 | 0.784 | 0.891 | 0.812 | 0.627 | 0.585 | 0.369 | 0.391 | 0.3 | 0.459 | 0.152 | 0.538 | 0.616 | 0.501 | 0.417 | 0.361 | 0.919 | 0.915 | 0.856 | 0.925 | 0.751 |
| H3255 |  | 0.913 | 0.698 | 0.88 | 0.428 | 0.359 | 0.388 | 0.436 | 0.333 | 0.33 |  | 0.533 | 0.604 | 0.568 | 0.583 | 0.817 | 0.8 | 0.749 | 0.75 | 0.86 |
| NCI-H2009 | 0.682 | 0.77 | 0.738 | 0.534 | 0.329 | 0.308 | 0.319 | 0.296 | 0.272 | 0.235 | 0.445 | 0.384 | 0.333 | 0.263 | 0.274 | 0.703 | 0.833 | 0.714 | 0.734 | 0.697 |
| NCI-H1755 | 0.78 | 0.749 | 0.716 | 0.788 | 0.827 | 0.444 | 0.288 | 0.437 | 0.434 | 0.554 | 0.774 | 0.763 | 0.736 | 0.714 | 0.743 | 0.871 | 0.676 | 0.764 | 0.803 | 0.733 |
| LU99A | 0.518 | 0.474 | 0.442 | 0.409 | 0.519 | 0.359 | 0.526 | 0.527 | 0.422 | 0.361 | 0.954 | 1.07 | 0.951 | 0.972 | 0.945 | 0.548 | 0.399 | 0.48 | 0.434 | 0.401 |
| ChaGo-K-1 | 0.763 | 0.76 | 0.721 | 0.698 | 0.574 | 0.633 | 0.62 | 0.56 | 0.479 | 0.543 | 0.524 | 0.557 | 0.482 | 0.473 | 0.527 | 0.72 | 0.767 | 0.715 | 0.714 | 0.793 |
| NCI-H2347 | 0.588 | 0.539 | 0.45 | 0.49 | 0.476 | 0.271 | 0.322 | 0.327 | 0.283 | 0.307 | 0.612 | 0.71 | 0.646 | 0.539 | 0.557 | 0.721 | 0.65 | 0.598 | 0.575 | 0.597 |
| NCI-H650 | 0.553 | 0.505 | 0.422 | 0.355 | 0.432 | 0.432 | 0.473 | 0.503 | 0.461 | 0.355 | 0.287 | 0.336 | 0.283 | 0.265 | 0.304 | 0.466 | 0.414 | 0.428 | 0.355 | 0.35 |
| SW 900 |  | 0.452 | 0.394 | 0.346 | 0.26 | 0.544 | 0.66 | 0.461 | 0.36 | 0.406 |  | 0.461 | 0.449 | 0.403 | 0.449 | 0.457 |  |  | 0.564 | 0.439 |
| NCI-H1666 |  | 1.1 | 0.972 | 0.808 | 0.806 | 0.812 | 0.811 | 0.461 | 0.359 | 0.318 | 0.671 | 0.759 | 0.662 | 0.692 | 0.697 | 1.02 | 1.14 | 1.12 | 1.05 | 1.18 |
| PC-3 [JPC-3] | 1.02 | 0.946 | 0.824 | 0.747 | 0.416 | 1.02 | 0.975 | 0.935 | 0.946 | 0.97 | 0.765 | 0.803 | 0.907 | 0.829 | 0.732 | 0.849 | 0.668 | 1.04 | 0.834 | 0.789 |
| HARA | 0.593 | 0.482 | 0.547 | 0.589 | 0.432 | 0.26 | 0.344 | 0.296 | 0.261 | 0.23 | 0.796 | 0.425 | 0.519 | 0.507 | 0.407 | 0.547 | 0.47 | 0.415 | 0.462 | 0.466 |
| NCI-H727 | 1.33 | 1.09 |  | 1.13 | 1.19 | 0.271 | 0.46 | 0.305 | 0.368 | 0.329 | 0.913 | 0.909 |  | 0.89 | 0.909 | 1.03 | 1.12 | 1.07 | 1.17 | 1.24 |
| NCI-H1650 | 0.52 | 0.625 | 0.417 | 0.181 | 0.16 | 0.37 | 0.321 | 0.301 | 0.149 | 0.11 | 0.396 | 0.314 | 0.361 | 0.245 | 0.135 | 0.611 | 0.551 | 0.5 | 0.665 | 0.61 |
